# Legend:
# Format in all cases: cell-based
# [1] = test system: NCI-H1573 lung carcinoma cells; assay: Cell growth inhibition (CellTiter-Glo), NCI-H1573; settings: Homo sapiens, NCI-H1573, 72 h, 3 days
# Description: Esophageal carcinoma cell line OE33 was purchased from ECACC European Collection of Cell Cultures (UK). Breast cancer cell line JIMT-1 and gastric carcinoma cell line MKN-45 were purchased from Deutsche Sammlung von Mikroorganismen and Zellkulturen GmbH (Germany); KPL-4, a human breast cancer cell line was kindly provided by Prof. J Kurebayashi (Kawasaki Medical School, Kurashiki, Japan). […] The LICR-LON-HN5 head and neck carcinoma cell line (HN5) was a gift from the Institute of Cancer Research, Surrey, U.K. HN5C12 was developed by single-cell cloning of HN5 followed by exposure to increasing concentrations of lapatinib. […] Cell growth inhibition was determined via CellTiter-Glo cell viability assays. […] BT474-J4 and HN5C12 were washed with PBS and plated in their culture media without lapatinib. […] ATP levels were determined by adding Cell Titer Glo0 (Promega), incubating for 20 minutes then the luminescent signal was read on the SpectraMax M5 plate with a 0.5 second integration time. Cell growth was calculated relative to vehicle (DMSO) treated control wells. […] Excess Over Highest Single Agent (EOHSA) is defined as a statistically significant improvement in the combination compared to the component monotherapies. […] Analysis was conducted using two-factor analysis of variance with interaction (model terms were dose of drug A, dose of drug B, and interaction between doses of drug A and B), followed by linear contrasts between each combination group and corresponding monotherapies. Analysis was conducted using SAS (version 9, provided by SAS Institute, Cary, N.C.). EOHSA at each dose was calculated as the minimum difference in average % inhibition between the combination and each monotherapy, from the appropriate ANOVA contrast. Since there are many comparisons for the % inhibition endpoint, p-value adjustment for multiple comparisons was performed. Hommel's procedure was implemented in order to improve the power while retaining […] Error Rate (FWE) control by using a sequentially rejective method. The p-values for both synergy and antagonism were calculated using this adjustment.
# [2] = test system: NCI-H2342 lung carcinoma cells; assay: Cell growth inhibition (CellTiter-Glo), NCI-H2342; settings: Homo sapiens, NCI-H2342, 72 h, 3 days
# Description: (§1) Esophageal carcinoma cell line OE33 was purchased from ECACC European Collection of Cell Cultures (UK). Breast cancer cell line JIMT-1 and gastric carcinoma cell line MKN-45 were purchased from Deutsche Sammlung von Mikroorganismen and Zellkulturen GmbH (Germany); KPL-4, a human breast cancer cell line was kindly provided by Prof. J Kurebayashi (Kawasaki Medical School, Kurashiki, Japan). […] The LICR-LON-HN5 head and neck carcinoma cell line (HN5) was a gift from the Institute of Cancer Research, Surrey, U.K. HN5C12 was developed by single-cell cloning of HN5 followed by exposure to increasing concentrations of lapatinib. […] Cell growth inhibition was determined via CellTiter-Glo cell viability assays. […] BT474-J4 and HN5C12 were washed with PBS and plated in their culture media without lapatinib. […] ATP levels were determined by adding Cell Titer Glo0 (Promega), incubating for 20 minutes then the luminescent signal was read on the SpectraMax M5 plate with a 0.5 second integration time. Cell growth was calculated relative to vehicle (DMSO) treated control wells. […] y=([…]) where A is the minimum response (ymin), B is the maximum response (ymax), c is the inflection point of the curve (EC50), d is the Hill coefficient, and x is the log10 compound concentration (moles/L). CI values were calculated with the interpolated IC50 values and the mutually non-exclusive equation derived by Chou and […](a)+Db/IC50(b)+(Da×Db)/(IC50(a)×IC50(b)) where IC50(a) is the IC50 of the inhibitor A; IC50(b) is the IC50 for the inhibitor B; […] Excess Over Highest Single Agent (EOHSA) is defined as a statistically significant improvement in the combination compared to the component monotherapies. […] See Borisy et al. (2003) or Hung et al. (1993) for examples and discussion. Analysis was conducted using two-factor analysis of variance with interaction (model terms were dose of drug A, dose of drug B, and interaction between doses of drug A and B), followed by linear contrasts between each combination group and corresponding monotherapies. Analysis was conducted using SAS (version 9, provided by SAS Institute, Cary, N.C.). EOHSA at each dose was calculated as the minimum difference in average % inhibition between the combination and each monotherapy, from the appropriate ANOVA contrast. Since there are many comparisons for the % inhibition endpoint, p-value adjustment for multiple comparisons was performed. Hommel's procedure was implemented in order to improve the power while retaining […] Error Rate (FWE) control by using a sequentially rejective method. The p-values for both synergy and antagonism were calculated using this adjustment.
# [3] = test system: HOP-92 lung carcinoma cells; assay: Cell growth inhibition (CellTiter-Glo), HOP-92; settings: Homo sapiens, HOP-92, 72 h, 3 days
# Description: as §1
"IC50 ([1]; lung_H1573, +HGF (2 ng/mL)) [µM]","IC50 ([1]; lung_H1573, −HGF) [µM]","IC50 ([2]; lung_H2342, +HGF (2 ng/mL)) [µM]","IC50 ([2]; lung_H2342, −HGF) [µM]","IC50 ([3]; lung_HOP-92, +HGF (2 ng/mL)) [µM]","IC50 ([3]; lung_HOP-92, −HGF) [µM]",Compound
> 10,> 10,> 10,> 10,> 10,> 10,"C#Cc1cccc(Nc2ncnc3cc(OCCOC)c(OCCOC)cc23)c1 [Erlotinib, N-(3-ethynylphenyl)-6,7-bis{[2-(methyloxy)ethyl]oxy}-4-quinazolinamine]"
> 10,9.83,6.64,6.81,> 10,> 10,"CS(=O)(=O)CCNCc1ccc(-c2ccc3ncnc(Nc4ccc(OCc5cccc(F)c5)c(Cl)c4)c3c2)o1 [Lapatinib, N-(3-chloro-4-{[(3-fluorophenyl)methyl]oxy}phenyl)-6-[5-({[2-(methylsulfonyl)ethyl]amino}methyl)-2-furanyl]-4-quinazolinamine]"

# Source: US20130150363A1, “Method of Treating Cancer Using a cMET and AXL Inhibitor and an ErbB Inhibitor” (GlaxoSmithKline, priority 2008, published 2013)
